pKd: −log10 of the molar value. Where two headings read alike, the source gives them in different places. Numbered stars: 1 amine (or outer) side, 2 acyl side, 3 side chain; on linkers, the order of the positions; unused ones are H or OH. Square brackets hold non-standard residues; d marks the D form. Peptide text beside a SMILES is read from it. X1 = COc1ccc(CN([C@@H](C)C(=O)[*:2])[*:1])cc1OC; Gly(Nα-4-F-phenethyl) = O=C(O)CNCCc1ccc(F)cc1; X3 = COc1ccc(CN(CC(=O)[*:2])[*:1])cc1OC; X2 = C[C@@H](C(=O)[*:2])N(CCCCN)[*:1]; Gly(N-propargyl) = C#CCNCC(=O)O; NFurfurylGly = O=C(O)CNCc1ccco1; Nlys = NCCCCNCC(=O)O
Key:
scFv PX4-4 = experiment: Fluorescence polarization / anisotropy titration of fluorescein-labelled compounds with PX4-4; assay type: binding, human; conditions: for pKd: FP titration with PX4-4
Description: Hits identification: All 17 hits were cleaved using CNBr and then characterized by MALDI mass spectrum. All 17 structures were resynthesized and examined against PX4-4 with FP assay. Only one hit was identified as binder with a Kd <10 μM.
(§1) The affinity of compound 13 for PX4-4 was determined by fluorescence anisotropy.
96 beads were chosen randomly from the library and placed individually into the wells of a 96-well filter plate. Each well was treated with fluorescein azide and a copper catalyst to attach fluorescein to the alkyne handle and then the compounds were cleaved from beads. The beads were filtered out and the soluble compounds were used for the fluorescence polarization (FP) assay. All 27 possible structures were found in this collection of molecules by tandem MS sequencing. Semi-quantitative binding constants for the PX4-4 antibody all 27 of the compounds were determined by titrating the compounds with the protein in the microwell format and monitoring the increase in FP. […] Most of the curves approached saturation, allowing for an accurate determination of the KD. In contrast, compound A41, corresponding to peptoid 14), was not saturated in the tested protein concentration range (100 nM to 400 μM) (FIG. 9B).

whole human IgG = experiment: Fluorescence polarization selectivity test with a mixture of human IgG; assay type: binding; conditions: FP experiment repeated using a mixture of human IgG; FIG. 9B
Description: as §1
To address the selectivity of compounds A14 (N,R,S configuration), A7 (N,S,S), A68 (R,S,R), A41(N,N,N) and A24 (R,R,R) for PX4-4, the FP experiment was repeated using a mixture of human IgG as we did previously for compound 13. […] This implies that greater conformational flexibility is associated with binding promiscuity.

[1] = re-synthesized and purified compounds, read-out: Kd-re
[2] = semi-quantitative, compounds cleaved from single beads, 96-well microwell format, read-out: Kd-96

Row | Compound | pKd (scFv PX4-4; [1]) | pKd (scFv PX4-4; [2]) | binding with whole human IgG (whole human IgG) | saturation of FP binding curve with PX4-4 (scFv PX4-4; protein concentration range 100 nM to 400 μM, FIG. 9B)
1 | C#CCN(CC(=O)N(CCCCN)CC(=O)N(CC(N)=O)Cc1ccco1)C(=O)CN(CCCCN)C(=O)CN(CCc1ccc(F)cc1)C(=O)[C@H](C)N(CCCCN)C(=O)[C@H](C)NCc1ccc(OC)c(OC)c1 [A7] (H-[X1][X2][Gly(Nα-4-F-phenethyl)][Nlys][Gly(N-propargyl)][Nlys][NFurfurylGly]-NH2) | 4.60 | 4.39 | no binding | –
2 | [2H]C([2H])([2H])[C@@]([2H])(NCc1ccc(OC)c(OC)c1)C(=O)N(CCCCN)[C@@H](C)C(=O)N(CCc1ccc(F)cc1)[C@@]([2H])(C(=O)N(CCCCN)CC(=O)N(CC#C)CC(=O)N(CCCCN)CC(=O)N(CC(N)=O)Cc1ccco1)C([2H])([2H])[2H] [A68] | 4.19 | 4.36 | no binding | –
3 | [2H]C([2H])([2H])[C@@]([2H])(NCc1ccc(OC)c(OC)c1)C(=O)N(CCCCN)[C@@]([2H])(C(=O)N(CCc1ccc(F)cc1)[C@@]([2H])(C(=O)N(CCCCN)CC(=O)N(CC#C)CC(=O)N(CCCCN)CC(=O)N(CC(N)=O)Cc1ccco1)C([2H])([2H])[2H])C([2H])([2H])[2H] [A24] | 3.63 | 3.93 | no binding | –
4 | [2H]C([2H])([2H])[C@]([2H])(C(=O)N(CCc1ccc(F)cc1)CC(=O)N(CCCCN)CC(=O)N(CC#C)CC(=O)N(CCCCN)CC(=O)N(CC(N)=O)Cc1ccco1)N(CCCCN)C(=O)[C@H](C)NCc1ccc(OC)c(OC)c1 [A14] | 4.72 | 4.56 | no binding | –
5 | C#CCN(CC(=O)N(CCCCN)CC(=O)N(CC(N)=O)Cc1ccco1)C(=O)CN(CCCCN)C(=O)CN(CCc1ccc(F)cc1)C(=O)CN(CCCCN)C(=O)CNCc1ccc(OC)c(OC)c1 [A41] (H-[X3][Nlys][Gly(Nα-4-F-phenethyl)][Nlys][Gly(N-propargyl)][Nlys][NFurfurylGly]-NH2) | – | 3.95 | – | not saturated

From patent US10370409B2, “Synthesis of libraries of peptide tertiary amides” (The Scripps Research Institute, priority 2011, dated 2019)
